According to US8034787B2, “Enzyme-cleavable prodrug compounds” (Medarex, Inc., priority 1998, dated 2011):

Legend:
[1] = test system: HL-60 cells; test: 3H-thymidine incorporation proliferation assay; assay type: cell-based; conditions: Homo sapiens, HL-60, 24 hours
Procedure: Promyelocytic leukemia cells, HL-60, were cultured in RPMI media containing 10% heat inactivated fetal calf serum (FCS). On the day of the study, the cells were collected, washed and resuspended at a concentration of 0.5×10^6 cells/ml in RPMI containing 10% FCS. 100 μl/well of cell suspension was added to 96 well plates. […] Finally, 10 μl of a 100 μCi/ml ^3H-thymidine was added per well and the plates were incubated for 24 hours. The plates were harvested using a 96 well Harvester (Packard Instruments) and counted on a Packard Top Count counter. Four parameter logistic curves were fitted to the ^3H-thymidine incorporation as a function of drug molarity using Prism software to determine IC50 values.

[2] = test system: MX-1 tumors; assay type: in vivo, mice
Procedure: MX-1 tumors which are moderately doxorubicin-sensitive, human breast carcinoma xenografts, were implanted subcutaneously (s.c.) and mice were weighed and tumors were measured (by caliper) at least once a week prior to start of dosing (Day 0), then twice a week during the study. Immediately before the start of dosing (Study Day −2 to Day 0), mice were randomized to various groups based on the weight of the tumors. Mice were euthanized after the tumors reached a cutoff weight of 1.5 g (cancer endpoint). Studies were terminated at Day 60.

[3] = test system: LS174T tumor
From the text: Statistically significant from vehicle control group: *: p<0.05; **: p<0.01 (unpaired t-test).

[4] = Aggregation, Centricon ultrafiltration; assay type: physicochemical; conditions: 17.4 μMol/ml in distilled water, 2 hr at 1500 g; listed as Dox
[5] = 3 mg/kg, 5 doses, one every 7 days

COc1cccc2c1C(=O)c1c(O)c3c(c(O)c1C2=O)C[C@@](O)(C(=O)CO)C[C@@H]3O[C@H]1C[C@H](N)[C@H](O)[C@H](C)O1 [Doxorubicin]
IC50 [1]: 0.075 µM
MDS [2, 5]: 27.3 ± 2.6 days
Survival: MDS Extension over controls [2, 5]: 33 ± 13%
TGD [2, 5]: 6.8 ± 2.7 days
Tumor Weight (mg, Day 18) [2, 5]: 906 ± 150 mg
TGI ([2]; 3 mg/kg, 5 doses, one every 7 days, over control at Day 18): 22 ± 16%
tolerability of dose regimens ([2]; mouse, in vivo): very well tolerated
MDS [3, 5]: 25.8 ± 2.5 days
MDS Extension over controls [3, 5]: 3 ± 13%
Mean Tumor Weight (mg, Day 19) [3, 5]: 1035 ± 180 mg
TGD [3, 5]: 0.8 ± 3.1 days
TGI [3, 5]: 0%
efficacy in inhibiting LS-174T tumor and extending survival ([3]; doxorubicin 3 mg/kg): ineffective
tolerability of dose regimens ([3]; mouse, in vivo): very well tolerated
3000 MWCO Filt. [4]: 81%
